# Measurements taken from patent US5965533A, “Atrial natriuretic peptide (ANP) as an additive to peritoneal dialysis solutions” (Baxter International Inc., priority 1997, dated 1999).
# Experiments:
# rats = assay: Intraperitoneally administered ANP in peritoneal dialysis solution, transport characteristics in rats, 4 hour dwell; format: in vivo, rat
# Procedure: A first experiment was performed to assess the effect of intraperitoneal administered ANP on peritoneal dialysis transport characteristics in rats. In this study, a dose of 9 μg ANP/kg BW of rat was mixed in a base solution of 2.5% dextrose DIANEAL® solution. The rats were injected with 90 ml/kg BW of either the above solution with the ANP additive or an unaltered control DIANEAL® solution.
# Blood samples were taken before and after the 4 hour dwell period. Dialysate samples were collected at the start of the dwell and every 2 hours thereafter. All samples were analyzed for urea nitrogen (UN), sodium (Na), glucose, protein (prtn), and osmolality (Osm). At the end of the 4 hour dwell period, the rats were sacrificed, the abdominal walls excised, and the effluents collected and weighed.
# To prepare the above ANP solution, 250 cc of DIANEAL® PD-2 solution was transferred into a 250 ml empty bag (VIAFLEX®). 10 cc of DIANEAL® PD-2 solution was injected into a vial containing […] of ANF (atrial natriuretic factor--yANF,rat,28AA sold by Peninsula Laboratories, Inc.). 1.25 cc of the DIANEAL®/ANF solution was then withdrawn with a needle and syringe and injected into the 250 ml bag containing the DIANEAL® base solution through a 0.22 μm sterile filter. The bag was then enclosed with a sampling site coupler. The control solution was similarly transferred into a new 250 ml bag (VIAFLEX®) and enclosed with a sampling site coupler.
# sheep = assay: ANP in 4.25% dextrose DIANEAL peritoneal dialysis solution in conscious sheep, 6 hour dwell; format: in vivo; conditions: mean, n = 5
# Procedure: In a second experiment performed on sheep, ANP was added to a 4.25% dextrose DIANEAL® solution to provide a final concentration of ANP in the solution of […]. The dialysis solution was then infused into the peritoneal cavity of the sheep in 50 ml/kg BW volumes. The dwell time periods were 6 hours; the sheep remained conscious.
# wherein pl. vol. is plasma volume; Vo is the volume of the peritoneal cavity before the commencement of the dialysis; V6 is the volume of the peritoneal cavity after six hours; LFR is lymph flow rate; Bl. rec. is blood recovery; and PC rec. is peritoneal cavity recovery.
# [1] = ANP as additive versus control DIANEAL solution, Table 1 and FIGS. 1 and 2
# [2] = rat, protein, 9 μg ANP/kg BW, 4 hour, mean ± SD
# [3] = rat, urea nitrogen, 9 μg ANP/kg BW, 4 hour, mean ± SD
# [4] = ANP 1×10^31 7 M in 4.25% dextrose DIANEAL
substance,measurement,setting,value
atrial natriuretic peptide [ANP],effect on net ultrafiltration (in words),rats; [1],increases
same,effect on sodium clearance (in words),rats; [1],increases
same,nUF (net ultrafiltration),"rats; rat, 9 μg ANP/kg BW in 2.5% dextrose DIANEAL, 90 ml/kg BW i.p., 4 hour dwell, mean ± SD",8.17 ± 0.52 mL
same,Osm (osmolality),"rats; rat, 9 μg ANP/kg BW in 2.5% dextrose DIANEAL, 4 hour sample, mean ± SD",308.0 ± 3.5 mOsm/kg
same,D/D0 (glucose),"rats; rat, glucose, 9 μg ANP/kg BW, 4 hour, mean ± SD",0.363 ± 0.024
same,Clearance (prtn),rats; [2],1.379 ± 0.117 µL/min
same,D/P (prtn),rats; [2],0.0106 ± 0.0009
same,Clearance (Na),"rats; rat, sodium, 9 μg ANP/kg BW, 4 hour, mean ± SD",0.1110 ± 0.0027 mL/min
same,Clearance (UN),rats; [3],0.106 ± 0.005 mL/min
same,D/P (UN),rats; [3],0.81 ± 0.04
same,Fl. loss,sheep; [4],13.39 mL/kg
same,LFR (lymph flow rate),sheep; [4],6.45 mL/kg
same,NUF (net ultra filtration),sheep; [4],22.05 mL/kg
same,PC rec. (peritoneal cavity recovery),sheep; [4],82.12%
same,Total rec.,sheep; [4],93.81%
same,V6 (volume of the peritoneal cavity after six hours),sheep; [4],0.07246 L/kg
same,pl. vol. (plasma volume),"sheep; ANP in 4.25% dextrose DIANEAL, 50 ml/kg BW",52.70 mL/kg
same,Bl. rec. (blood recovery),sheep; ANP in 4.25% dextrose DIANEAL,11.69%
